Assay results: patent US20170190744A1 (Vicuron Pharmaceuticals, Inc., priority 2015, published 2017)
Converted amounts (≈) assume the structure as drawn. “And” between values parts separate entries of the source, which are not always exact repeats. Equal values may be shown once.

Legend:
[1] = system: 3797 S aureus clin. Isolate GISA; test: MIC (microbiological activity); type: cell-based
[2] = system: G 16440 E coli iperperm; test: MIC (microbiological activity); type: cell-based; settings: repeat determinations
[3] = system: P450; test: P450 induction after administration to rats; type: in vivo
[4] = system: skin and soft tissue infections (SSTI); test: Phase II trial in deep skin and soft tissue infections: clinical response; type: in vivo, human; settings: for clinical success rate at FU: clinically-evaluable population; for clinical success rate, deep or complicated SSTI at baseline: exploratory subanalysis
Experimental: This randomized, controlled study evaluated the safety and efficacy of two dose regimens of dalbavancin.
There were 62 patients randomized into the study; all received at least one dose of study medication. Four study populations were evaluated for safety and efficacy and were defined as follows: The intent-to-treat (ITT) population included all patients who received at least one dose of study drug (all randomized study subjects).
(§1) The effectiveness of the three treatment regimens was determined by assessing the patients' clinical response and the documented or presumed microbiological responses. The primary efficacy endpoint was clinical response at the follow-up visit for the clinically evaluable population. Clinical response, for both EOT and FU visits, was categorized as success (cure or improvement) or failure (including indeterminate results). Patients classified as successes must not have received additional systemic antibacterial treatment for their infection. Failure was defined as persistence of one or more local or systemic signs and symptoms of SSTI such that treatment with new or additional systemic antibacterial agents was required for the SSTI.

[5] = system: Gram-positive pathogen; test: Phase II SSTI trial: microbiologic response, all organisms; type: in vivo, human; settings: microbiologically-evaluable population
Experimental: (§2) Microbiological outcome, a secondary efficacy variable, was assessed in the subpopulation of patients who had microbiologically documented SSTI (i.e., at least one identified baseline pathogen). A microbiologic response was assessed for each Gram-positive pathogen identified at baseline (i.e., eradication, presumed eradication, persistence, presumed persistence). For patients for whom follow-up cultures were not performed, the microbiologic responses for baseline pathogens were presumed on the basis of the clinical response. Microbiologic response by patient at the EOT and FU visits was graded as success (i.e., all Gram-positive organisms eradicated or presumed eradicated) or failure (i.e., at least one Gram-positive organism persisted or presumed to have persisted, multiple pathogens with partial eradication). At both the EOT and FU visits, colonization and superinfection were assessed. At the FU visit, a patient's bacteriological response could also include recurrence.

[6] = system: S. aureus; test: Phase II SSTI trial: microbiologic response, S. aureus; type: in vivo, human
Experimental: as §2

[7] = system: methicillin-resistant S. aureus (MRSA); test: Phase II SSTI trial: response in patients with MRSA (MITT); type: in vivo, human; settings: MITT population
Experimental: as §1, §2

[8] = Pharmacokinetics and renal excretion in healthy subjects; type: in vivo, human; settings: single 1000 mg IV
Experimental: Blood samples were drawn into heparinized tubes and centrifuged. Plasma was separated and stored frozen at −20° C. until time of assay. Plasma and urine samples were assayed for dalbavancin using validated LC/MS/MS methods. […] The peak concentration (Cmax) values were obtained directly from the observed data. The area under the plasma concentration-time curve (AUC) was calculated using the linear trapezoidal rule. Clearance (CL) was computed as dose/AUC. The elimination half life (t1/2) was estimated by linear regression of the log-linear portion of the log concentration versus time curve. Estimates of the volume of distribution (VZ) was calculated using the regression parameters, while the volume of distribution at steady state (Vss) was calculated from the area under the first moment curve (AUMC) multiplied by the dose and divided by AUC. The cumulative amount of dalbavancin excreted in urine was determined as the integrand of the urine excretion rate (AURC). CLR, or renal clearance, was calculated as the ratio: CLR=AURC/AUC.

[9] = Pharmacokinetics in hepatic impairment (VER001-12); type: in vivo, human; settings: 1000 mg Day 1 and 500 mg Day 8, Mean (±SD)
From the text: The study enrolled otherwise healthy subjects with mild, moderate, or severe hepatic impairment (Child-Pugh scores 5 to 6, 7 to 9, and 10 to 15, respectively) and matched control subjects with normal hepatic function.

[10] = system: S. pneumoniae; test: Murine thigh-infection model; type: in vivo, mice; settings: for 1 Log Kill mg/kg/72 h / 2 Log Kill mg/kg/72 h: q 72 h regimen; for 1 log kill dose / 2 log kill dose: total dose over 6 days
Experimental: (§3) Each point represents the mean of 4 thighs. Five dose levels, ranging 16-fold were used.
(§4) Five different doses (two-fold increases) were used. Study against S. aureus utilized total dose (mg/kg/6 d) levels ranging from 30 to 480 mg/kg/6 d. […] Each point represents the mean of 4 thighs.
(§5) Each point represents the mean of four thighs.
Each point represents the mean value from 4 thighs. The static dose, and the doses associated with a 1 and 2 log kill were calculated from the parameters estimated by non-linear regression using the Hill equation.

[11] = system: S. aureus; test: Murine thigh-infection model; type: in vivo, mice; settings: for 1 Log Kill mg/kg/72 h / 2 Log Kill mg/kg/72 h: q 72 h regimen; for 1 log kill dose: SA29213, total dose over 6 days
Experimental: as §3, §4, §5

[12] = in vivo
Experimental: Safety was evaluated by the collection and analysis of data on adverse events (AEs), clinical laboratory tests, physical examinations, vital signs, and ECGs.

[13] = both, human, in vivo
Experimental: Male and female subjects between ages 18 and 80 were eligible for enrollment. Subjects had to be within −10% to +50% of ideal body weight for their sex, height, and body frame.
The peak concentrations (Cmax) were obtained directly from the observed data. The area under the plasma concentration-time curve (AUC) were calculated using the linear trapezoidal rule.

[14] = system: S. aureus; test: MIC of study organisms (NCCLS microdilution); type: cell-based
[15] = net static effect, 1 or 2 log kill

## CN[C@H]1C(=O)N[C@@H]2Cc3ccc(cc3)Oc3cc4cc(c3O[C@@H]3O[C@H](C(=O)O)[C@@H](O)[C@H](O)[C@H]3NC(=O)CCCCCCCCC(C)C)Oc3ccc(cc3Cl)[C@@H](O)[C@@H]3NC(=O)[C@H](NC(=O)[C@@H]4NC(=O)[C@@H](NC2=O)c2cc(cc(O)c2Cl)Oc2cc1ccc2O)c1ccc(O)c(c1)-c1c(O[C@H]2O[C@H](CO)[C@@H](O)[C@H](O)[C@@H]2O)cc(O)cc1[C@@H](C(=O)NCCCN(C)C)NC3=O [Dalbavancin]
[1]
  MIC: 2 µg/mL (≈ 1.1 µM)
[2]
  MIC: 16 µg/mL (≈ 8.81 µM)
[3]
  P450 induction: did not induce any P450 activity
[4]; single-dose dalbavancin (1100 mg IV day 1)
  clinical success rate at FU: 61.5%
[4]; two-dose dalbavancin (1 g IV day 1, 500 mg IV day 8)
  clinical success rate at FU: 94.1% and 94%
[4]; single-dose dalbavancin
  clinical success rate, deep or complicated SSTI at baseline: 58.3%
[4]; two-dose dalbavancin
  clinical success rate, deep or complicated SSTI at baseline: 93.8%
[5]; single-dose dalbavancin
  eradication/presumed eradication rate at FU, all organisms: 58%
  microbiologic success rate at EOT: 38.5%
  microbiologic success rate at FU: 27.3%
[5]; two-dose dalbavancin
  eradication/presumed eradication rate at FU, all organisms: 92%
  microbiologic success rate at EOT: 72.7%
  microbiologic success rate at FU: 72.7%
[6]; single-dose dalbavancin
  S. aureus eradication rate at FU: 50%
[6]; two-dose dalbavancin
  S. aureus eradication rate at FU: 90%
[7]; single-dose dalbavancin
  clinical success rate at FU in patients with MRSA: 50%
  rate of eradication for MRSA: 50%
[7]; two-dose dalbavancin
  clinical success rate at FU in patients with MRSA: 80%
  rate of eradication for MRSA: 80%
[8]
  t1/2: 220 to 288 h
[9]; Mild Hepatic Impairment
  t1/2: 323 (27) h
[9]; Moderate Hepatic Impairment
  t1/2: 320 (24) h
[9]; Normal Hepatic Function
  t1/2: 321 (24) h
[9]; Severe Hepatic Impairment
  t1/2: 322 (68) h
[10]; Mean ± SD of S. pneumoniae strains
  1 Log Kill mg/kg/72 h: 0.93 ± 0.24 mg/kg/72 h
[10]; S. pneumoniae and S. aureus, static dose, 1 and 2 log kill
  24 h AUC/MIC values lower with every 72 h than every 24 h dosing: 1.3 to 2.4 fold
[10]; SP1199, 6 days of therapy
  1 Log Kill mg/kg/72 h: 0.85 mg/kg/72 h
  2 Log Kill mg/kg/72 h: 0.99 mg/kg/72 h
[10]; SP1325, 6 days of therapy
  1 Log Kill mg/kg/72 h: 0.99 mg/kg/72 h
[10]; SP1396, 6 days of therapy
  1 Log Kill mg/kg/72 h: 0.61 mg/kg/72 h
  2 Log Kill mg/kg/72 h: 0.69 mg/kg/72 h
[10]; SP10813, q 12 h
  1 log kill dose: 2.8 mg/kg
  2 log kill dose: 3.5 mg/kg
[10]; SP10813, q 24 h
  1 log kill dose: 1.54 mg/kg
  2 log kill dose: 1.75 mg/kg
[10]; SP10813, q 72 h
  1 log kill dose: 0.77 mg/kg
  2 log kill dose: 0.82 mg/kg
[10]; SP10813, 6 days of therapy
  1 Log Kill mg/kg/72 h: 0.77 mg/kg/72 h
  2 Log Kill mg/kg/72 h: 0.82 mg/kg/72 h
[10]; all strains
  drop in cfu over the 6 day study: > 4 log10
[10]; every 24 h dosing
  less drug required against pneumococci than S. aureus, based upon 24 h AUC/MIC: 12 to 23 fold
[10]; every 72 h dosing, 6 days
  free drug 24 h AUC/MIC associated with a static effect: 7.2±4.5
[10]; [15]
  free drug AUC/MIC over the 6 days of therapy required for efficacy: ~100
[10]; normal vs neutropenic mice, 24-hour dosing, not statistically significant
  reduction in doses necessary for efficacy in presence of neutrophils: 1.7- to 2.1 fold
[11]; MRSA, 6 days of therapy
  1 Log Kill mg/kg/72 h: 62 mg/kg/72 h
  2 Log Kill mg/kg/72 h: 85 mg/kg/72 h
[11]; Mean ± SD of S. aureus strains
  1 Log Kill mg/kg/72 h: 94 ± 46 mg/kg/72 h
  2 Log Kill mg/kg/72 h: 120 ± 54 mg/kg/72 h
[11]; q 36 h
  1 log kill dose: 36 mg/kg
[11]; q 72 h
  1 log kill dose: 31 mg/kg
[11]; SA33591, 6 days of therapy
  1 Log Kill mg/kg/72 h: 93 mg/kg/72 h
[11]; SA307109, 6 days of therapy
  1 Log Kill mg/kg/72 h: 34 mg/kg/72 h
  2 Log Kill mg/kg/72 h: 37 mg/kg/72 h
[11]; SA Smith, 6 days of therapy
  1 Log Kill mg/kg/72 h: 95 mg/kg/72 h
[11]; all strains
  drop in cfu over the 6 day study: > 4 log10
[11]; [15]
  free drug AUC/MIC over the 6 days of therapy required for efficacy: ~1000
[12]; human
  average difference of effect on QTc values versus vancomycin group: 7 ms
[12]
  impact on heart rate, atrioventricular conduction or intra-ventricular conduction: did not exhibit any impact
[13]; 500 mg
  AUC: 24376 ± 6615 µg·h/mL
[13]; 1000 mg
  AUC14: ~22000′ mg · h/L
  AUC42: 23137 ± 3326 µg·h/mL
[14]; S. aureus, MBC higher than MIC
  MBC relative to MIC: 2 to 4 fold
[14]; SA25923
  MBC: 0.50 µg/mL
